From patent publication US20200246268A1, “CPZEN COMPOSITIONS AND USES” (PAI Life Sciences Inc., priority 2017, published 2020)
Where “and” joins values, the source holds several entries; their conditions need not be identical. Identical values can stand only once.

Columns and labels:
porcine stomach mucin = assay: Mucin binding dialysis assay
Procedure: Mucin binding was evaluated using a dialysis assay developed previously (Huang et al., 2015). Briefly, 100 μL of capreomycin, CPZEN-45, or a 50:50 combination of both at 4 mg/mL per drug was suspended in 900 μL Dulbecco's PBS without calcium or magnesium (Lonza, Cat. #17-512F) either with or without 12.5% (wt./vol) porcine stomach mucin (Sigma-Aldrich, Cat. #M1778, type III, bound sialic acid 0.5% to 1.5%, partially purified powder). The resulting mixtures were placed in Spectra/Por dialysis bags (6- to 8-kDa molecular mass cutoff, 32-mm flat width, 20.4-mm diameter; 3.3-ml/cm volume; Spectrum Laboratories, Cat. #132655, Rancho Dominguez, Calif.), with the tube ends closed using standard dialysis bag closures. […] Dialysate samples (200 μl) were collected at 10, 60, 120, and 240 minutes and the antibiotic concentration within each dialysate was determined by HPLC UV/vis analysis. The percentage of each antibiotic detected in the dialysate was calculated relative to the theoretical total concentration based on 400 μg of antibiotic in an 11-ml total volume. […]
Colistin sulfate content was measured via mass spectrometry on an Agilent 6460 Triple Quadrupole LC/MS System with a Waters Cortecs UPLC C18 1.6 2.1×50 mm column.

[1] = in vivo; cited from earlier work
[2] = format: physicochemical; conditions: base treatment (0.1 M NaOH, pH=12.8, 72 hours)
Procedure: Prior to evaluating the long-term stability of a spray-dried combination powder, multiple forced degradations on capreomycin and CPZEN-45 were performed before determining the chromatographic profile of treated materials and monitoring absorbance at 265 nm using a Shimadzu RP-HPLC unit. By this method, it was confirmed that it was possible to detect drug degradation as well as any degradants generated.
Forced degradations were performed by subjecting aqueous solutions of non-spray-dried capreomycin or CPZEN-45 at 0.1 mg/mL to multiple conditions (all at 23° C. unless noted otherwise): control (no treatment, 72 hours), acid (0.1 M HCl, pH=1.2, 72 hours), base (0.1 M NaOH, pH=12.8, 72 hours), oxidizer (3% w/v 2Na2CO3 3H2O2 (sodium percarbonate), 72 hours), 60° C. for 72 hours, or 90° C. for 30 minutes.
Capreomycin and CPZEN-45 content for forced degradation, stability, and impactor studies was measured by RP-HPLC with a Shimadzu system consisting of an SCL-10AVP system controller, two LC-10ADVP pumps, a DGU-14A degasser, SIL-10A autoinjector, and SPD-M10AVP diode array detector. […] All peaks were detected at wavelength 265 nm. Linearity for total capreomycin was obtained between 1 and 75 μg/mL (R^2=0.996) with a limit of detection (LOD) of 0.74 μg/mL. Linearity for CPZEN-45 was obtained between 0.5 and 100 μg/mL (R^2=0.996) with an LOD of 1.03 μg/mL. […]

[3] = Accelerated stability study: assay and related substances by HPLC; format: physicochemical; conditions: for CPZEN-45 assay by HPLC / Related Substances by HPLC: CPZEN-45 API
Procedure: Drugs were stored either individually as a free-flowing powder, as a 1:1 spray-dried formulation of capreomycin and CPZEN-45 as a free-flowing powder, or as a 1:1 spray-dried formulation in #3 hydroxypropylmethylcellulose (HPMC) capsules. All samples were deposited into 5 mL screw-top glass vials. Samples were collected at the beginning of the study, after 1 week, 1 month, 3 months, and 6 months. HPLC-based methods for detecting CPZEN-45, capreomycin, and degradation products are described in the “Methods” section below.
Capreomycin and CPZEN-45 content for forced degradation, stability, and impactor studies was measured by RP-HPLC with a Shimadzu system consisting of an SCL-10AVP system controller, two LC-10ADVP pumps, a DGU-14A degasser, SIL-10A autoinjector, and SPD-M10AVP diode array detector. […] All peaks were detected at wavelength 265 nm. Linearity for total capreomycin was obtained between 1 and 75 μg/mL (R^2=0.996) with a limit of detection (LOD) of 0.74 μg/mL. Linearity for CPZEN-45 was obtained between 0.5 and 100 μg/mL (R^2=0.996) with an LOD of 1.03 μg/mL.

[4] = 40° C./75% RH table, T = 3 MON, footnote: due to melting values after month 3 are 30° C./60% RH
[5] = 40° C./75% RH table, T = 6 MON, footnote: due to melting values after month 3 are 30° C./60% RH

With colistin sulfate the “Percentage of efflux in the presence of mucin relative to samples without mucin” value (porcine stomach mucin; after 4 hours, drug alone, 12.5% porcine stomach mucin, 37° C.) was 20%.

In the case of `CCCCc1ccc(NC(=O)C2=CCN(C)[C@@H]([C@H](O[C@@H]3O[C@H](CN)[C@@H](O)[C@H]3O)[C@H]3O[C@@H](n4ccc(=O)[nH]c4=O)[C@H](O)[C@@H]3O)C(=O)N2C)cc1` [CPZEN-45], the “Percentage of efflux in the presence of mucin relative to samples without mucin” value (porcine stomach mucin; not told) is listed as 48%, the Oral availability [1] is listed as “not orally available due to poor absorption from the gastrointestinal tract” and the “Loss of the original mass of intact compound” value [2] is listed as “approximately 88%”. For the same compound, the “Stability in accelerated stability studies” value [3] was “highly stable”, the “CPZEN-45 assay by HPLC” value ([3]; 25° C./60% RH, T = 0, replicates 1-3 and average ± RSD) was 98.1% and 98.0% and 95.3% and the “Related Substances by HPLC” value ([3]; 25° C./60% RH, T = 1 MON, replicates 1-3 and average) was 0.7%. The “CPZEN-45 assay by HPLC” value ([3]; 25° C./60% RH, T = 1 MON, replicates 1-3 and average ± RSD) was 100.7% and 98.0% and 99.5%, the “Related Substances by HPLC” value ([3]; 25° C./60% RH, T = 1 WEEK, replicates 1-3 and average) was 0.4% and the “CPZEN-45 assay by HPLC” value ([3]; 25° C./60% RH, T = 1 WEEK, replicates 1-3 and average ± RSD) was 96.2% and 95.8% and 97.1%. For the same compound, the “Related Substances by HPLC” value ([3]; 25° C./60% RH, T = 3 MON, replicates 1-3 and average) was 0.4% and 0.6%, the “CPZEN-45 assay by HPLC” value ([3]; 25° C./60% RH, T = 3 MON, replicates 1-3 and average ± RSD) was 98.0% and 103.2% and the “Related Substances by HPLC” value ([3]; 25° C./60% RH, T = 6 MON, replicates 1-3 and average) was 0.8%. The “CPZEN-45 assay by HPLC” value ([3]; 25° C./60% RH, T = 6 MON, replicates 1-3 and average ± RSD) was 97.2% and 98.4% and 97.1%, the “CPZEN-45 assay by HPLC” value [3, 4] was 97.2% and 101.0% and 102.8% and the “Related Substances by HPLC” value [3, 4] was 0.6% and 0.8%. For the same compound, the “CPZEN-45 assay by HPLC” value [3, 5] was 96.5% and 98.0% and 97.5%, the “Related Substances by HPLC” value [3, 5] was 1.4% and 1.2% and the “CPZEN-45 assay by HPLC” value ([3]; 40° C./75% RH, T = 0, replicates 1-3 and average ± RSD) was 98.1% and 98.0% and 95.3%. The “Related Substances by HPLC” value ([3]; 40° C./75% RH, T = 1 MON, replicates 1-3 and average) was 2.5% and 1.8% and 2.0%, the “CPZEN-45 assay by HPLC” value ([3]; 40° C./75% RH, T = 1 MON, replicates 1-3 and average ± RSD) was 100.3% and 96.0% and 94.4% and the “Related Substances by HPLC” value ([3]; 40° C./75% RH, T = 1 WEEK, replicates 1-3 and average) was 0.5%. The “CPZEN-45 assay by HPLC” value ([3]; 40° C./75% RH, T = 1 WEEK, replicates 1-3 and average ± RSD) was 96.1% and 96.4% and 95.9%.
